Legend:
[1] = parameters: method as in PMID 21375264; conditions: acute and chronic toxicity tests in rats; cited from earlier work
[2] = parameters: method as in PMID 21375264; conditions: cited from earlier work
[3] = tested on: TNF-α and IL-6 production; parameters: method as in PMID 21375264; conditions: following oral administration; cited from earlier work
[4] = PET/CT imaging of BAT in normal mouse; type: in vivo, ddY mice
Description: A small-animal PET/SPECT/CT scanner (E-Class VECTor^6CT^SD, MILabs, Utrecht, The Netherlands) was used, and it was equipped with a high-efficiency general purpose rat and mouse collimator. After the PET imaging, CT imaging was performed (exposure time: 40 ms, tube voltage: 55 kv, tube current: 0.33 mA). After the CT imaging, the mice were immediately euthanized under anesthesia, their BAT was removed and weighed, and its radioactivity was measured (n = 1). The raw data obtained from the PET scan were reconstructed using the SROSEM method and superimposed onto the CT images. […] The SUVs were then calculated using Amide software 1.0.6 (Slashdot Media, San Francisco, CA, USA).

[5] = Biodistribution study after intravenous administration in normal ddY mice; type: in vivo
Description: Mice (n = 20, 5 weeks old, 23–29 g) were randomly assigned to five groups (n = 4 each). […] Sample size was limited to four animals per group in adherence to ethical guidelines for the reduction of animal use. Target tissues, including BAT, blood, muscle, bone, brain, heart, lung, stomach, pancreas, spleen, kidneys, liver, and small and large intestines, were excised and weighed, and the radioactivity of each tissue was measured using a γ-counter. The accumulation of radioactivity was expressed as the percentage of the injected dose per gram of tissue (%ID/g) for all tissues except for the stomach, for which it was expressed as the percentage of the injected dose per organ (%ID).

[6] = In vitro stability analysis in mouse plasma; type: in vitro ADME; conditions: 2 h incubation in mouse plasma at 37 °C, normal-phase TLC
[7] = Log D measurement (1-octanol/PBS); type: physicochemical; conditions: 1-octanol/PBS (pH = 7.4), room temperature
Description: The mixture was shaken for 10 min at room temperature, followed by centrifugation at 10,000 rpm for 10 min. The radioactivity in each phase was measured using a γ counter.

activated p38α = tested on: activated p38α; parameters: method as in PMID 34410619, PMID 35760973; conditions: cited from earlier work
[8] = 5 min after i.v. administration
[9] = 15 min after i.v. administration
[10] = 30 min after i.v. administration
[11] = 60 min after i.v. administration
[12] = 120 min after i.v. administration

## Cn1c(=O)c(Oc2ccc(F)cc2F)cc2cnc(NC3CCOCC3)nc21 [R1487, 6-(2,4-difluorophenoxy)-8-methyl-2-(tetrahydro-2H-pyran-4-ylamino)pyrido [2,3-d]pyrimidin-7(8H)-one]
[1]
  acceptable tolerability, no severe adverse events: up to 10 mg/kg
[2]
  clearance route: predominantly hepatic clearance
[2]; monkeys, oral administration
  oral bioavailability: 51.6%
[2]; monkeys
  half-life in blood: 22.5 h
[3]
  production of TNF-α and IL-6: suppress

## Cn1c(=O)c(Oc2ccc([18F])cc2F)cc2cnc(NC3CCOCC3)nc21 [[^18F]R1487, 6-(4-[^18F]fluoro-2-fluorophenoxy)-8-methyl-2-(tetrahydro-2H-pyran-4-ylamino)-pyrido[2,3-d]pyrimidin-7(8H)-one]
[4]; PET 10–15 min post-intravenous administration, manual ROI
  mean standardized uptake value (SUV) in the BAT: 4.7
[4]; γ counter, immediately after PET/CT imaging, n = 1
  radioactivity in the excised BAT after PET/CT imaging: 11.6 %ID/g
[5]; [8]
  Radioactivity in BAT: 16.3 ± 2.7 %ID/g
  Radioactivity in Blood: 2.8 ± 0.1 %ID/g
  Radioactivity in Bone: 6.4 ± 0.7 %ID/g
  Radioactivity in Brain: 2.9 ± 0.5 %ID/g
  Radioactivity in Heart: 5.0 ± 0.8 %ID/g
  Radioactivity in Kidney: 7.7 ± 1.9 %ID/g
  Radioactivity in Large intestine: 2.2 ± 0.7 %ID/g
  Radioactivity in Liver: 11.3 ± 1.9 %ID/g
  Radioactivity in Lung: 4.0 ± 0.6 %ID/g
  Radioactivity in Muscle: 2.7 ± 0.5 %ID/g
  Radioactivity in Pancreas: 4.4 ± 0.9 %ID/g
  Radioactivity in Small intestine: 5.8 ± 1.0 %ID/g
  Radioactivity in Spleen: 4.0 ± 0.9 %ID/g
  Radioactivity in Stomach: 1.1 ± 0.2 %ID
[5]; [9]
  Radioactivity in BAT: 8.0 ± 2.6 %ID/g
  Radioactivity in Blood: 1.0 ± 0.2 %ID/g
  Radioactivity in Bone: 5.1 ± 0.9 %ID/g
  Radioactivity in Brain: 1.3 ± 0.6 %ID/g
  Radioactivity in Heart: 2.8 ± 0.5 %ID/g
  Radioactivity in Kidney: 5.1 ± 1.3 %ID/g
  Radioactivity in Large intestine: 2.3 ± 0.4 %ID/g
  Radioactivity in Liver: 5.9 ± 1.3 %ID/g
  Radioactivity in Lung: 3.2 ± 0.8 %ID/g
  Radioactivity in Muscle: 2.4 ± 0.3 %ID/g
  Radioactivity in Pancreas: 2.4 ± 0.6 %ID/g
  Radioactivity in Small intestine: 8.6 ± 1.9 %ID/g
  Radioactivity in Spleen: 4.5 ± 0.8 %ID/g
  Radioactivity in Stomach: 1.3 ± 0.5 %ID
[5]; [10]
  Radioactivity in BAT: 5.2 ± 1.1 %ID/g
  Radioactivity in Blood: 0.7 ± 0.1 %ID/g
  Radioactivity in Bone: 6.7 ± 1.0 %ID/g
  Radioactivity in Brain: 1.0 ± 0.6 %ID/g
  Radioactivity in Heart: 2.3 ± 0.7 %ID/g
  Radioactivity in Kidney: 3.5 ± 0.6 %ID/g
  Radioactivity in Large intestine: 4.3 ± 3.7 %ID/g
  Radioactivity in Liver: 4.7 ± 0.9 %ID/g
  Radioactivity in Lung: 2.3 ± 0.5 %ID/g
  Radioactivity in Muscle: 2.1 ± 0.2 %ID/g
  Radioactivity in Pancreas: 1.9 ± 0.1 %ID/g
  Radioactivity in Small intestine: 16.9 ± 4.0 %ID/g
  Radioactivity in Spleen: 3.3 ± 0.5 %ID/g
  Radioactivity in Stomach: 1.8 ± 0.4 %ID
[5]; [11]
  Radioactivity in BAT: 2.2 ± 0.6 %ID/g
  Radioactivity in Blood: 0.4 ± 0.1 %ID/g
  Radioactivity in Bone: 6.9 ± 2.9 %ID/g
  Radioactivity in Brain: 0.4 ± 0.2 %ID/g
  Radioactivity in Heart: 1.4 ± 0.1 %ID/g
  Radioactivity in Kidney: 2.4 ± 0.7 %ID/g
  Radioactivity in Large intestine: 4.3 ± 1.6 %ID/g
  Radioactivity in Liver: 3.4 ± 0.3 %ID/g
  Radioactivity in Lung: 1.3 ±0.2 %ID/g
  Radioactivity in Muscle: 1.0 ± 0.1 %ID/g
  Radioactivity in Pancreas: 1.0 ± 0.1 %ID/g
  Radioactivity in Small intestine: 23.8 ± 3.7 %ID/g
  Radioactivity in Spleen: 1.7 ± 0.4 %ID/g
  Radioactivity in Stomach: 4.1 ± 2.2 %ID
[5]; [12]
  Radioactivity in BAT: 1.0 ± 0.2 %ID/g
  Radioactivity in Blood: 0.2 ± 0.0 %ID/g
  Radioactivity in Bone: 8.7 ± 2.3 %ID/g
  Radioactivity in Brain: 0.2 ± 0.1 %ID/g
  Radioactivity in Heart: 0.7 ± 0.1 %ID/g
  Radioactivity in Kidney: 0.7 ± 0.1 %ID/g
  Radioactivity in Large intestine: 32.6 ± 8.7 %ID/g
  Radioactivity in Liver: 1.8 ± 0.9 %ID/g
  Radioactivity in Lung: 0.4 ± 0.1 %ID/g
  Radioactivity in Muscle: 0.5 ± 0.0 %ID/g
  Radioactivity in Pancreas: 1.0 ± 0.4 %ID/g
  Radioactivity in Small intestine: 13.0 ± 3.4 %ID/g
  Radioactivity in Spleen: 0.9 ± 0.1 %ID/g
  Radioactivity in Stomach: 1.2 ± 0.5 %ID
[5]; post-injection
  time of peak radioactivity in BAT: 5 min
[6]
  radioactivity detected in intact form: more than 96%
[7]
  logD: 2.2

## Cn1c(=O)c(Oc2ccc([77Br])cc2F)cc2cnc(NC3CCOCC3)nc21 [[^77Br]4-BR, 6-(4-[^77Br]bromo-2-fluorophenoxy)-8-methyl-2-(tetrahydro-2H-pyran-4-ylamino)-pyrido[2,3-d]pyrimidin-7(8H)-one]
Activated p38α; at 2 h
  inflamed site-to-blood ratio: 4.1
Activated p38α; post-injection
  time of peak radioactivity accumulation in inflamed tissues: 15 min

From PMC12030359, “Fluorine-18-Labeled Positron Emission Tomography Probe Targeting Activated p38α: Design, Synthesis, and In Vivo Evaluation in Rodents” (Pharmaceuticals, 2025)
